Experimental findings from patent US12281149B2, “Modulators of G-protein coupled receptors” (priority 2021, dated 2025) are described below.

pEC50: −log10 of the molar value. Where two headings read alike, the source gives them in different places. *1 amine or outer side, *2 acyl side, *3 side chain or, on linkers, in order; H or OH if unused. Where a SMILES comes first, the peptide text is derived from it. Side-chain parts run from the residue outwards. [ ]: non-standard residue; d: D form. The star is where a group is joined. C20 diacid = O=C(O)CCCCCCCCCCCCCCCCCCC(=O)*; X74 = CC(C)(C(=O)*)c1cc(F)cc(C(F)(F)F)c1; NH(3,5-Cl2-phenyl) = Clc1cc(Cl)cc(N*)c1; γGlu = O=C(O)[C@H](CCC(=O)[*:2])N[*:1]; X48 = CC(C)[C@H](C(=O)*)c1ccc(Cl)cc1; X22 = CC(C)(C(=O)*)c1ccc(C#N)cc1F; X72 = CC(C)(C(=O)*)c1cccc(Cl)c1F; AEEA = NCCOCCOCC(=O)O; Aib = CC(C)(N)C(=O)O; CO = O=C([*:1])[*:2]; GABA = NCCCC(=O)O; βAla = NCCC(=O)O

Common to all, as to format: cell-based
In test [1] the target is T1, GLP-1 receptor (Homo sapiens, UniProt P43220). Nature of the test: HitHunter cAMP assay, GLP-1 receptor. The conditions noted are these: for Emax: read-out: Emax GLP-1R. For orientation: Cyclic AMP is a second messenger, typically raised through Gs and lowered through Gi signalling.
The target of test [2] is T2, GIP receptor (Homo sapiens, UniProt P48546).
T2 sequence (P48546 22-466): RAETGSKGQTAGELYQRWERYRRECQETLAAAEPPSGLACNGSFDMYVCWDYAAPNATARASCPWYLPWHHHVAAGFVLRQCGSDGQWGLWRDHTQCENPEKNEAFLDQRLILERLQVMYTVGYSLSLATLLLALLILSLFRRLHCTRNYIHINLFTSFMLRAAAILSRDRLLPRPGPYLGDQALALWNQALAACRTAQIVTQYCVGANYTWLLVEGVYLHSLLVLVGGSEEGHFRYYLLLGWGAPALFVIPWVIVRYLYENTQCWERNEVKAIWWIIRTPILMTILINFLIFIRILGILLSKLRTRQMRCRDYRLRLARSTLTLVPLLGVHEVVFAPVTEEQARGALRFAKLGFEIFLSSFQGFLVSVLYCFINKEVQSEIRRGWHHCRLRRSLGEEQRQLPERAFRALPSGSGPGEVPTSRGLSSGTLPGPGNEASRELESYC
Nature of the test: HitHunter cAMP assay, GIP receptor. The conditions noted are these: for Emax: read-out: Emax GIP-1R.

Test [3] has as its target T2, GIP receptor. The test is described as follows: PathHunter β-arrestin assay, GIP receptor. On the set-up: host or cells: PathHunter CHO-K1 GIPR β-Arrestin Cell Line.
The target of test [4] is T1, GLP-1 receptor. The test is described as follows: PathHunter β-arrestin assay, GLP-1 receptor. Details: host or cells: PathHunter CHO-K1 GLP1R β-Arrestin Cell Line.
Where [5] appears, read: CHO cells stably expressing human GLP-1 receptor, cAMP accumulation, 30 min, read-out: EC50 GLP-1R.
Where [6] appears, read: CHO cells, cAMP, normalized to maximum signal from GLP-1 (high) and DMSO (low).
Setting [7] is: CHO cells stably expressing GIP receptor, cAMP accumulation, 30 min, read-out: EC50 GIP-1R.
Setting [8] is: CHO cells, cAMP, normalized to maximum signal from GIP (high) and DMSO (low).
Where [9] appears, read: β-arrestin-2 recruitment, PathHunter CHO-K1 GIPR β-Arrestin Cell Line, 90 min at 37° C., normalized to GIP, read-out: GIPR β Arrestin EC50.
[10] abbreviates: β-arrestin-2 recruitment, PathHunter CHO-K1 GLP1R β-Arrestin Cell Line, 90 min at 37° C., normalized to GLP-1, read-out: GLP-1R β Arrestin EC50.

T1 sequence (P43220 24-463): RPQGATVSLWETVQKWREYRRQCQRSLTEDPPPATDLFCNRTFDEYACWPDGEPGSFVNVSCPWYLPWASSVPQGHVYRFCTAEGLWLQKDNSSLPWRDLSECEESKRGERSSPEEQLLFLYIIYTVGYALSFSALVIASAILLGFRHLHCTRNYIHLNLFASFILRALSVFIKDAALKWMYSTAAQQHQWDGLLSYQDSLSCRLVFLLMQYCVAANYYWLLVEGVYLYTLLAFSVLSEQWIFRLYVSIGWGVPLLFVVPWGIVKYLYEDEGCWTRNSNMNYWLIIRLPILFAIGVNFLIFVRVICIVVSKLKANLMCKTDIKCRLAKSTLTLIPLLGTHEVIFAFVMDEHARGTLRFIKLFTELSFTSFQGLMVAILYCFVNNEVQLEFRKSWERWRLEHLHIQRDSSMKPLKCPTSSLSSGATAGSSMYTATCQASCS

Usually pEC50 stands for −log10 of the EC50, conventionally taken in molar units. The Emax is the size of the effect at its maximum, as opposed to the concentration needed. Take `CC[C@H](C)[C@H](NC(=O)[C@H](CC(C)C)NC(=O)[C@H](Cc1c[nH]c2ccccc12)NC(=O)[C@H](CCC(N)=O)NC(=O)[C@@H](NC(=O)[C@H](Cc1ccccc1)NC(=O)[C@H](C)NC(=O)[C@H](CCCCNC(=O)COCCOCCNC(=O)COCCOCCNC(=O)CC[C@H](NC(=O)CCCCCCCCCCCCCCCCCCC(=O)O)C(=O)O)NC(=O)[C@H](CCC(N)=O)NC(=O)[C@H](C)NC(=O)[C@@H](NC(=O)[C@H](CCCCN)NC(=O)[C@H](CC(=O)O)NC(=O)[C@H](CC(C)C)NC(=O)C(C)(C)NC(=O)[C@@H](NC(=O)[C@H](CO)NC(=O)[C@H](Cc1ccc(O)cc1)NC(=O)[C@H](CC(=O)O)NC(=O)[C@H](CO)NC(=O)[C@@H](NC(=O)[C@H](Cc1ccccc1)NC(=O)[C@@H](NC(=O)CNC(=O)[C@H](CCC(=O)O)NC(=O)CCNC(=O)C(C)(C)c1ccc(C#N)cc1F)[C@@H](C)O)[C@@H](C)O)[C@@H](C)CC)[C@@H](C)CC)C(C)C)C(=O)N[C@@H](C)C(=O)NCC(=O)NCC(=O)N1CCC[C@H]1C(=O)N[C@@H](CO)C(=O)N[C@@H](CO)C(=O)NCC(=O)N[C@@H](C)C(=O)N1CCC[C@H]1C(=O)N1CCC[C@H]1C(=O)N1CCC[C@H]1C(=O)N[C@@H](CO)C(N)=O` [Compound 149] ({X22-βAla}-EGTFTSDYSI[Aib]LDKIAQK([AEEA-AEEA-γGlu-C20 diacid])AFVQWLIAGGPSSGAPPPS-NH2): the pEC50 on GLP-1 receptor [1] (setting [5]) was 9.00 to 10.00; at GIP receptor [2] (setting [7]), 8.00 to 9.00; on GIP receptor [3] (setting [9]), above 6.00; at GLP-1 receptor [4] (setting [10]), below 6.00. Moreover, the Emax was determined as 98% at GLP-1 receptor [1] (setting [6]) and 96% at GIP receptor [2] (setting [8]).

In the case of `CC[C@H](C)[C@H](NC(=O)[C@H](CC(C)C)NC(=O)[C@H](Cc1c[nH]c2ccccc12)NC(=O)[C@H](CCC(N)=O)NC(=O)[C@@H](NC(=O)[C@H](Cc1ccccc1)NC(=O)[C@H](C)NC(=O)[C@H](CCCCNC(=O)COCCOCCNC(=O)COCCOCCNC(=O)CC[C@H](NC(=O)CCCCCCCCCCCCCCCCCCC(=O)O)C(=O)O)NC(=O)[C@H](CCC(N)=O)NC(=O)[C@H](C)NC(=O)[C@@H](NC(=O)[C@H](CCCCN)NC(=O)[C@H](CC(=O)O)NC(=O)[C@H](CC(C)C)NC(=O)C(C)(C)NC(=O)[C@@H](NC(=O)[C@H](CO)NC(=O)[C@H](Cc1ccc(O)cc1)NC(=O)[C@H](CC(=O)O)NC(=O)[C@H](CO)NC(=O)[C@@H](NC(=O)[C@H](Cc1ccccc1)NC(=O)[C@@H](NC(=O)CNC(=O)[C@H](CCC(=O)O)NC(=O)CCNC(=O)[C@H](c1ccc(Cl)cc1)C(C)C)[C@@H](C)O)[C@@H](C)O)[C@@H](C)CC)[C@@H](C)CC)C(C)C)C(=O)N[C@@H](C)C(=O)NCC(=O)NCC(=O)N1CCC[C@H]1C(=O)N[C@@H](CO)C(=O)N[C@@H](CO)C(=O)NCC(=O)N[C@@H](C)C(=O)N1CCC[C@H]1C(=O)N1CCC[C@H]1C(=O)N1CCC[C@H]1C(=O)N[C@@H](CO)C(N)=O` [Compound 177] ({X48-βAla}-EGTFTSDYSI[Aib]LDKIAQK([AEEA-AEEA-γGlu-C20 diacid])AFVQWLIAGGPSSGAPPPS-NH2), the pEC50 is 8.00 to 9.00 at GLP-1 receptor [1], 7.00 to 8.00 on GIP receptor [2], below 6.00 on GIP receptor [3] and below 6.00 on GLP-1 receptor [4]. For the same compound, the Emax on GLP-1 receptor [1] (CHO) turned out to be 95%; on GIP receptor [2] (CHO) it was 94%.

For `CC[C@H](C)[C@H](NC(=O)[C@H](CC(C)C)NC(=O)[C@H](Cc1c[nH]c2ccccc12)NC(=O)[C@H](CCC(N)=O)NC(=O)[C@@H](NC(=O)[C@H](Cc1ccccc1)NC(=O)[C@H](C)NC(=O)[C@H](CCCCNC(=O)COCCOCCNC(=O)COCCOCCNC(=O)CC[C@H](NC(=O)CCCCCCCCCCCCCCCCCCC(=O)O)C(=O)O)NC(=O)[C@H](CCC(N)=O)NC(=O)[C@H](C)NC(=O)[C@@H](NC(=O)[C@H](CCCCN)NC(=O)[C@H](CC(=O)O)NC(=O)[C@H](CC(C)C)NC(=O)C(C)(C)NC(=O)[C@@H](NC(=O)[C@H](CO)NC(=O)[C@H](Cc1ccc(O)cc1)NC(=O)[C@H](CC(=O)O)NC(=O)[C@H](CO)NC(=O)[C@@H](NC(=O)[C@H](Cc1ccccc1)NC(=O)[C@@H](NC(=O)CNC(=O)[C@H](CCC(=O)O)NC(=O)CCNC(=O)C(C)(C)c1cccc(Cl)c1F)[C@@H](C)O)[C@@H](C)O)[C@@H](C)CC)[C@@H](C)CC)C(C)C)C(=O)N[C@@H](C)C(=O)NCC(=O)NCC(=O)N1CCC[C@H]1C(=O)N[C@@H](CO)C(=O)N[C@@H](CO)C(=O)NCC(=O)N[C@@H](C)C(=O)N1CCC[C@H]1C(=O)N1CCC[C@H]1C(=O)N1CCC[C@H]1C(=O)N[C@@H](CO)C(N)=O` [Compound 219] ({X72-βAla}-EGTFTSDYSI[Aib]LDKIAQK([AEEA-AEEA-γGlu-C20 diacid])AFVQWLIAGGPSSGAPPPS-NH2), the pEC50 was above 10.00 on GLP-1 receptor [1] (setting [5]), 9.00 to 10.00 on GIP receptor [2] (setting [7]), above 6.00 at GIP receptor [3] (setting [9]) and below 6.00 on GLP-1 receptor [4] (setting [10]). The Emax came to 104% on GLP-1 receptor [1] (setting [6]) and 106% at GIP receptor [2] (setting [8]).

On to `CC[C@H](C)[C@H](NC(=O)[C@H](CC(C)C)NC(=O)[C@H](Cc1c[nH]c2ccccc12)NC(=O)[C@H](CCC(N)=O)NC(=O)[C@@H](NC(=O)[C@H](Cc1ccccc1)NC(=O)[C@H](C)NC(=O)[C@H](CCCCNC(=O)COCCOCCNC(=O)COCCOCCNC(=O)CC[C@H](NC(=O)CCCCCCCCCCCCCCCCCCC(=O)O)C(=O)O)NC(=O)[C@H](CCC(N)=O)NC(=O)[C@H](C)NC(=O)[C@@H](NC(=O)[C@H](CCCCN)NC(=O)[C@H](CC(=O)O)NC(=O)[C@H](CC(C)C)NC(=O)C(C)(C)NC(=O)[C@@H](NC(=O)[C@H](CO)NC(=O)[C@H](Cc1ccc(O)cc1)NC(=O)[C@H](CC(=O)O)NC(=O)[C@H](CO)NC(=O)[C@@H](NC(=O)[C@H](Cc1ccccc1)NC(=O)[C@@H](NC(=O)CNC(=O)[C@H](CCC(=O)O)NC(=O)CCNC(=O)C(C)(C)c1cc(F)cc(C(F)(F)F)c1)[C@@H](C)O)[C@@H](C)O)[C@@H](C)CC)[C@@H](C)CC)C(C)C)C(=O)N[C@@H](C)C(=O)NCC(=O)NCC(=O)N1CCC[C@H]1C(=O)N[C@@H](CO)C(=O)N[C@@H](CO)C(=O)NCC(=O)N[C@@H](C)C(=O)N1CCC[C@H]1C(=O)N1CCC[C@H]1C(=O)N1CCC[C@H]1C(=O)N[C@@H](CO)C(N)=O` [Compound 119] ({X74-βAla}-EGTFTSDYSI[Aib]LDKIAQK([AEEA-AEEA-γGlu-C20 diacid])AFVQWLIAGGPSSGAPPPS-NH2), for which the negative logarithm of the EC50 (pEC50) on GLP-1 receptor [1] (setting [5]) was 8.00 to 9.00; at GIP receptor [2] (setting [7]) it was 7.00 to 8.00; at GIP receptor [3] (setting [9]), below 6.00; on GLP-1 receptor [4] (setting [10]), below 6.00. Besides, the Emax at GLP-1 receptor [1] (setting [6]) came out at 102%; at GIP receptor [2] (setting [8]) it was 99%.

In the case of `CC[C@H](C)[C@H](NC(=O)[C@H](CC(C)C)NC(=O)[C@H](Cc1c[nH]c2ccccc12)NC(=O)[C@H](CCC(N)=O)NC(=O)[C@@H](NC(=O)[C@H](Cc1ccccc1)NC(=O)[C@H](C)NC(=O)[C@H](CCCCNC(=O)COCCOCCNC(=O)COCCOCCNC(=O)CC[C@H](NC(=O)CCCCCCCCCCCCCCCCCCC(=O)O)C(=O)O)NC(=O)[C@H](CCC(N)=O)NC(=O)[C@H](C)NC(=O)[C@@H](NC(=O)[C@H](CCCCN)NC(=O)[C@H](CC(=O)O)NC(=O)[C@H](CC(C)C)NC(=O)C(C)(C)NC(=O)[C@@H](NC(=O)[C@H](CO)NC(=O)[C@H](Cc1ccc(O)cc1)NC(=O)[C@H](CC(=O)O)NC(=O)[C@H](CO)NC(=O)[C@@H](NC(=O)[C@H](Cc1ccccc1)NC(=O)[C@@H](NC(=O)CNC(=O)[C@H](CCC(=O)O)NC(=O)CCCNC(=O)CNC(=O)Nc1cc(Cl)cc(Cl)c1)[C@@H](C)O)[C@@H](C)O)[C@@H](C)CC)[C@@H](C)CC)C(C)C)C(=O)N[C@@H](C)C(=O)NCC(=O)NCC(=O)N1CCC[C@H]1C(=O)N[C@@H](CO)C(=O)N[C@@H](CO)C(=O)NCC(=O)N[C@@H](C)C(=O)N1CCC[C@H]1C(=O)N1CCC[C@H]1C(=O)N1CCC[C@H]1C(=O)N[C@@H](CO)C(N)=O` [Compound 266] ({NH(3,5-Cl2-phenyl)-CO}-G[GABA]EGTFTSDYSI[Aib]LDKIAQK([AEEA-AEEA-γGlu-C20 diacid])AFVQWLIAGGPSSGAPPPS-NH2), the negative-log EC50 (pEC50) is 8.00 to 9.00 on GLP-1 receptor [1], 8.00 to 9.00 on GIP receptor [2], above 6.00 on GIP receptor [3] and below 6.00 at GLP-1 receptor [4]. Moreover, the Emax at GLP-1 receptor [1] (CHO) and on GIP receptor [2] (CHO) was 105% throughout.
